Source: PMC4340763 (Journal of immunology (Baltimore, Md. : 1950), 2015)
Peptide text beside a SMILES is read from it.

What follows are compounds tested against soluble HLA-A*0201 molecules (Homo sapiens, UniProt P04439, D140Y/D185E/D98H/E176V/E277Q/G131W/G231S/I119V/I121R/I166T/I218V/L300P/L318F/N151K/N90K/P208A/P217A/Q86G/Q94H/R138H/R169H/T345S) (assay: Binding affinity of synthetic peptides to soluble HLA-A*0201 molecules). Details: not given.

| Compound | IC50 [µM] | Kd [µM] |
| --- | --- | --- |
| CC[C@H](C)[C@H](NC(=O)[C@@H](N)CCCNC(=N)N)C(=O)N[C@@H](CCC(N)=O)C(=O)N[C@@H](CCC(N)=O)C(=O)N[C@@H](Cc1ccc(O)cc1)C(=O)N[C@@H](CCSC)C(=O)N[C@@H](Cc1ccccc1)C(=O)N[C@@H](Cc1ccccc1)C(=O)N[C@@H](CCSC)C(=O)O [VP11/12_197–205] (H-RIQQYMFFM-OH) | 0.081 | 0.083 |
| CSCC[C@H](N)C(=O)N[C@@H](CC(C)C)C(=O)N[C@@H](Cc1c[nH]c2ccccc12)C(=O)N[C@H](C(=O)N[C@H](C(=O)N[C@@H](CC(=O)O)C(=O)N[C@@H](CCCCN)C(=O)N[C@@H](Cc1c[nH]cn1)C(=O)N[C@H](C(=O)O)C(C)C)[C@@H](C)O)[C@@H](C)O [VP11/12_238–246] (H-MLWTTDKHV-OH) | 1.29 | – |
| CC(C)C[C@H](NC(=O)[C@H](CC(C)C)NC(=O)[C@H](CCC(=O)O)NC(=O)[C@H](CC(N)=O)NC(=O)[C@H](CC(C)C)NC(=O)[C@@H](N)CCCNC(=N)N)C(=O)N[C@@H](C)C(=O)N[C@@H](Cc1ccc(O)cc1)C(=O)N[C@H](C(=O)O)C(C)C [VP11/12_220–228] (H-RLNELLAYV-OH) | 0.709 | 0.709 |
| CC(C)C[C@H](NC(=O)[C@H](CCCCN)NC(=O)[C@@H](NC(=O)[C@H](CC(C)C)NC(=O)[C@H](CC(C)C)NC(=O)[C@H](C)NC(=O)[C@H](CO)NC(=O)[C@H](CC(C)C)NC(=O)[C@H](C)N)[C@@H](C)O)C(=O)O [VP11/12_702–710] (H-ALSALLTKL-OH) | 0.313 | 0.313 |
| CC(C)C[C@H](NC(=O)[C@@H](N)Cc1ccccc1)C(=O)N[C@H](C(=O)N[C@@H](CS)C(=O)N[C@H](C(=O)N[C@@H](CC(=O)O)C(=O)N[C@@H](CCCNC(=N)N)C(=O)N[C@@H](CO)C(=O)N[C@H](C(=O)O)C(C)C)[C@@H](C)O)[C@@H](C)O [VP11/12_66–74] (H-FLTCTDRSV-OH) | 0.083 | 0.081 |

Same assay, conditions: soluble HLA-A*0201 molecules

| Compound | binding affinity to soluble HLA-A*0201 molecules (in words) |
| --- | --- |
| ILTQYWKYL [VP11/12_127–135] | did not bind |
